Reference: US10695341B2, “Compositions and methods for treating endometriosis” (UNIVERSITY OF SOUTH FLORIDA, priority 2014, dated 2020)

Assays:
[1] = test system: peritoneal macrophages; assay: Peritoneal macrophage flow cytometry (CD11b, F4/80); type: in vivo, mouse; settings: HCQ-treated vs PBS-treated mice, p=0.0079
Procedure: The pellet obtained after centrifugation of the peritoneal fluid wash (see above) was utilized for macrophage staining. When necessary, red blood cell lysis was performed according to the manufacturer's protocol (eBioscience, San Diego, Calif.). The cell pellets were resuspended in 1 ml cold PBS and transferred to flow cytometry tubes. Samples were centrifuged for 1 min at 1,390 rpm. The supernatant was decanted and cells were resuspended in 100 μl of PBS. Cells were blocked using 0.5 μg of Mouse BD Fc, Block™ (#553141, BD Pharmingen, San Jose, Calif.) for 5 min on ice. The cells were incubated in 0.4 μg of APC Rat anti-mouse CD11b clone M1/70 (#553312, BD Pharmingen, San Jose, Calif.) and anti mPE-F4/80/EMR1 (# FAB5580C, R&D Systems, Minneapolis, Minn.)) at room temperature for 30 min, protected from light. After incubation, 700 μl of PBS was added to each tube and centrifuged for 1 min at 4° C. The supernatant was decanted, and the cells were resuspended in 300 μl in PBS and analyzed by flow cytometry.

[2] = test system: uterine horns and endometriotic lesions; assay: H&E histopathology of uterine horns and lesions from treated mice; type: in vivo, C57BL/6 mice
Procedure: A randomly selected subset of the collected lesions and uterine horns were processed for staining with hematoxylin and eosin (H&E) (pathologically confirmed endometriotic lesions from PBS and HCQ-treated mice, n=15 each; uterine horns derived from PBS-treated mice, n=10; and uterine horns derived from HCQ-treated mice, n=10).
Five-week-old C57BL/6 female mice were purchased from Jackson laboratories. All animals were maintained under standard 12 h photoperiod; food and water were available ad libitum throughout the study. All experimental procedures and animal care were approved by the Animal Care and Use Committee (IACUC) of the University of South Florida (R IS00000101), in accordance with the principles described in the Guide for the Care and Use of Laboratory Animals of the National Institutes of Health. All surgical procedures were performed under aseptic conditions using anesthesia. The mouse model of endometriosis was performed as previously described. […] Lesions were measured using a caliper. Volume of the lesions was calculated according to the formula: 4/3πr^2R.
Collected samples were immediately preserved in 10% neutral buffered formalin at the animal facility. […] Lesions were analyzed from independent blocks. […]

[3] = test system: LC3B-II; assay: Western blot for LC3B, life-extended human endometriotic cells, HCQ; type: cell-based; settings: 25 μM HCQ, 18 hours
[4] = test system: endometriotic lesions; assay: Induced murine endometriosis model, lesion count (Example 6); type: in vivo, C57BL/6 mice
Procedure: To determine whether treatment with HCQ alters the formation of endometriotic lesions, an induced model of murine endometriosis in which mice receive injections of uterine horn fragments that develop into lesions within 2 weeks was utilized. Receipient (endometriosis-induced) mice were treated with 60 mg/kg HCQ21 or phosphate-buffered saline (PBS, FIG. 12). This treatment was repeated once every seven days post-induction. Mice that were neither injected with uterine horn fragments nor treated were used as controls (FIG. 39). All of the mice were euthanized at the same time (14 days after endometriosis induction for both the PBS and HCQ treatment groups). Ectopic lesions that developed in the recipient mice (white arrow, FIGS. 40A-40B) were counted, measured, and collected for RNA and protein analysis, as well as for histological staining. […] The majority (87.5%) of endometriosis-induced mice developed lesions. At the time of collection, we noted that the endometriotic lesions varied in size, color, and location across the treatment groups.
Five-week-old C57BL/6 female mice were purchased from Jackson laboratories. All animals were maintained under standard 12 h photoperiod; food and water were available ad libitum throughout the study. […] Lesions were measured using a caliper. Volume of the lesions was calculated according to the formula: 4/3πr^2R.

uterine horns with irregular epithelium pattern ([2]; uterine horns from HCQ-treated mice, 60 mg/kg): 5 out of 10
Structure (SMILES): CCN(CCO)CCCC(C)Nc1ccnc2cc(Cl)ccc12 (stereo not drawn) [HCQ, hydroxychloroquine]
macrophage numbers in peritoneal cavity [1]: significant increase | histology of ectopic growths (glandular components) ([2]; vs PBS, p=0.03 Fisher's exact test): did not histologically resemble endometriotic lesions | LC3B-II protein (western blot) [3]: increased | number of lesions that developed vs PBS ([4]; 60 mg/kg HCQ i.p., repeated after seven days, 14 days after induction, p=0.0007): significant reduction | total number of lesions in treatment group ([4]; 60 mg/kg HCQ, n=25 mice (PBS: 46 lesions in n=24)): 18
